In PubChem BioAssay (NCI) one finds TGI and GI50 data, which are given here for 16 compounds.

Among the test systems are 786-0 renal; SF-268 CNS; A498 renal; OVCAR-4 ovarian; MCF7 breast; HCT-116 colon; NCI-H522 lung; SK-OV-3 ovarian; OVCAR-3 ovarian; NCI-H226 lung.
What all share (assay): inhibition of tumour cell growth, NCI panel, 48 h

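A five-concentration, 48-hour dose response in 96-well plates underlies each endpoint, interpolated linearly between surrounding concentrations. GI50: concentration for 50% inhibition of growth. TGI marks complete inhibition of growth.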

Turning to `CCO/C(=N/S(=O)(=O)C(F)(F)F)N(C(C)C)C(C)C`, the TGI in the experiment on 786-0 renal, in the experiment with SF-268 CNS, with A498 renal, in the experiment on OVCAR-4 ovarian, in the experiment with MCF7 breast and with HCT-116 colon was over 100 µM in each case. The TGI in the experiment with NCI-H522 lung was over 100 µM.

Take `CSc1ncc2c(n1)C(C#N)C1Sc3ccccc3N1C2=O` (stereo not given): the TGI in the experiment with SK-OV-3 ovarian, in the experiment with 786-0 renal, in the experiment on OVCAR-3 ovarian, in the experiment on SF-268 CNS, in the experiment with A498 renal and in the experiment with OVCAR-4 ovarian was over 100 µM throughout. In addition, the TGI in the experiment with HCT-116 colon, in the experiment on NCI-H522 lung and with NCI-H226 lung was over 100 µM in each case.

For the compound `CC(=O)NC1C(OCc2ccccc2)OC(CO)C(O)C1OCC(=O)N1CCCC1C(=O)N[C@@H](CCC(=O)NCCCCNc1c2ccccc2nc2cccc([N+](=O)[O-])c12)C(N)=O` (stereo not given in full), the TGI in the experiment on SK-OV-3 ovarian was over 100 µM; with 786-0 renal, over 100 µM; in the experiment with OVCAR-3 ovarian it was 61.9 µM; with SF-268 CNS it was over 100 µM; in the experiment on A498 renal it was over 100 µM; with OVCAR-4 ovarian, over 100 µM. Also, the TGI was 53.8 µM with MCF7 breast, 64.6 µM in the experiment with HCT-116 colon and over 100 µM with NCI-H226 lung.

Take `C[C@@H]1OC(=O)C[C@H]2CC(=O)N(CCC3CN(C(=O)OCc4ccccc4)c4ccccc43)C[C@@H]21` (stereo not given in full): the TGI in the experiment on SK-OV-3 ovarian, in the experiment on 786-0 renal, in the experiment on OVCAR-3 ovarian, with SF-268 CNS, in the experiment on A498 renal and in the experiment on OVCAR-4 ovarian was over 100 µM in each case. Moreover, the TGI with MCF7 breast, with HCT-116 colon and with NCI-H522 lung was over 100 µM each time.

With `CCN(CCCOc1ccccc1)CCN(CC)CCCOc1ccccc1`, the TGI in the experiment with 786-0 renal is 50.7 µM; with OVCAR-3 ovarian, 31.9 µM; with SF-268 CNS, 28.4 µM; with OVCAR-4 ovarian it was 37.5 µM; in the experiment on MCF7 breast it was 57.3 µM; with HCT-116 colon, over 100 µM. Also, the TGI is 28.9 µM in the experiment with NCI-H522 lung and 46.8 µM in the experiment on NCI-H226 lung.

As to `CCCCN(CCCC)Cc1cc(Nc2ccnc3cc(Cl)ccc23)ccc1O`, the GI50 with SK-OV-3 ovarian is 8.83 µM; in the experiment with OVCAR-3 ovarian it was 74.7 µM; in the experiment on SF-268 CNS, over 100 µM; with OVCAR-4 ovarian, over 100 µM; in the experiment with MCF7 breast, 8.91 µM; in the experiment with NCI-H522 lung, 3.75 µM. In the experiment on NCI-H226 lung, the GI50 was 11.1 µM. In addition, the TGI with SK-OV-3 ovarian, in the experiment on OVCAR-3 ovarian, in the experiment on SF-268 CNS, in the experiment on OVCAR-4 ovarian, in the experiment with MCF7 breast and with NCI-H522 lung was over 100 µM in each case. Besides, the TGI in the experiment with NCI-H226 lung was over 100 µM.

For the compound `C1=C(c2ccccc2)SC(N2CCCCC2)S1` (stereo not given), the TGI in the experiment on SK-OV-3 ovarian, in the experiment with OVCAR-3 ovarian, in the experiment on SF-268 CNS, with A498 renal, in the experiment on OVCAR-4 ovarian and in the experiment with HCT-116 colon was over 100 µM throughout. In addition, the TGI in the experiment on NCI-H522 lung and with NCI-H226 lung was over 100 µM each time.

On to `CCOC(=O)C(C#N)(Cc1c[nH]c2ccccc12)NC(C)=O` (stereo not given), for which the TGI with SK-OV-3 ovarian, in the experiment with OVCAR-3 ovarian, in the experiment with SF-268 CNS, in the experiment with OVCAR-4 ovarian, with HCT-116 colon and in the experiment on NCI-H522 lung was over 100 µM in each case. In the experiment on NCI-H226 lung, the TGI was over 100 µM.

As to `C=CCC1(C#N)C(=S)NC2=C(C(=O)CC(C)(C)C2)C1c1ccccc1` (stereo not given), the TGI in the experiment on 786-0 renal was over 100 µM; in the experiment on OVCAR-4 ovarian, 88.9 µM; with HCT-116 colon, over 100 µM; in the experiment on NCI-H226 lung it was over 100 µM.

As for `O=S1(=O)c2ccccc2Oc2ccc(C(/C=N/O)=N/O)cc21`, the TGI with SK-OV-3 ovarian is over 100 µM; in the experiment on 786-0 renal, over 100 µM; with OVCAR-3 ovarian, 36.6 µM; in the experiment with SF-268 CNS, over 100 µM; in the experiment on OVCAR-4 ovarian, over 100 µM; with MCF7 breast, 92.5 µM. Moreover, the results for the TGI in the experiment with HCT-116 colon, with NCI-H522 lung and with NCI-H226 lung were over 100 µM, 26.7 µM and over 100 µM, respectively.

Take `C=CCn1c(=O)c(C)cn(COCCO)c1=O`: the TGI in the experiment on OVCAR-3 ovarian, in the experiment on SF-268 CNS, in the experiment on MCF7 breast, with NCI-H522 lung and in the experiment on NCI-H226 lung was over 100 µM throughout.

For the compound `CCOC(=O)c1ccc(-n2[nH]nc(C(N)=O)c2=O)cc1`, the TGI in the experiment with SK-OV-3 ovarian, with 786-0 renal, in the experiment on OVCAR-3 ovarian, in the experiment with SF-268 CNS, in the experiment on OVCAR-4 ovarian and with MCF7 breast was over 100 µM each time. In addition, the TGI in the experiment with HCT-116 colon, in the experiment with NCI-H522 lung and in the experiment on NCI-H226 lung was over 100 µM each time.

As for `Cc1ccc2c(c1)-c1nc(N)c(C#N)c(-c3ccc(Cl)cc3)c1CCS2(=O)=O`, the TGI in the experiment with 786-0 renal was over 100 µM; with SF-268 CNS, over 100 µM; in the experiment with A498 renal it was 92.1 µM; with OVCAR-4 ovarian, over 100 µM; with HCT-116 colon it was over 100 µM; with NCI-H522 lung, over 100 µM. Moreover, the TGI with NCI-H226 lung was over 100 µM.

As for `N=C1C(=N)c2ccccc2-c2ccccc21.[Cl-].[Ru+2].c1ccc(-c2ccccn2)nc1.c1ccc(-c2ccccn2)nc1`, the TGI in the experiment with SK-OV-3 ovarian, in the experiment on 786-0 renal, with OVCAR-3 ovarian, in the experiment on SF-268 CNS, in the experiment on OVCAR-4 ovarian and in the experiment on HCT-116 colon was over 100 µM throughout. For the same compound, in the experiment with NCI-H522 lung, the TGI is over 100 µM.

Take `O=C(/C=C(/C=C/c1ccc2[nH]ccc2c1)OB(F)F)/C=C/c1ccc2[nH]ccc2c1`: the GI50 in the experiment on SK-OV-3 ovarian is 3.43 µM; with SF-268 CNS, 1.51 µM; with A498 renal, 2.61 µM; with OVCAR-4 ovarian, 0.726 µM; in the experiment with MCF7 breast, 0.376 µM. Moreover, the TGI is over 100 µM in the experiment on SK-OV-3 ovarian; 6.41 µM in the experiment on SF-268 CNS; 6.71 µM in the experiment on A498 renal; 6.46 µM with OVCAR-4 ovarian; 15 µM in the experiment with MCF7 breast.

Take `CC(=O)O[C@H]1CC(C)(C)C(=C=C/C(C)=C/C=C/C=C/C=C(C)/C=C2C=C(/C=C/[C@@]34O[C@]3(C)C[C@@H](O)CC4(C)C)C(=O)O/2)[C@](C)(O)C1`: the TGI is 85.9 µM with 786-0 renal; 23.2 µM in the experiment with OVCAR-3 ovarian; 43.6 µM in the experiment with SF-268 CNS; over 100 µM in the experiment on A498 renal; over 100 µM in the experiment with OVCAR-4 ovarian; 20.7 µM in the experiment on MCF7 breast. The results for the TGI in the experiment on HCT-116 colon and with NCI-H226 lung were 50.5 µM and 4.88 µM, respectively.
